Assay results taken from PMC9115881, “Penicillin Derivatives Inhibit the SARS-CoV-2 Main Protease by Reaction with Its Nucleophilic Cysteine” (Journal of Medicinal Chemistry, 2022).
Like-named read-outs stand apart in the source and are kept apart here.

Molecular target: SARS-CoV-2 M^pro (Severe acute respiratory syndrome coronavirus 2, UniProt P0DTD1)
Assay: biochemical
Assay type: biochemical
Conditions: for M^pro inhibition, result in words: SPE-MS inhibition assay
[1] = Table 1, M^pro […], 37mer substrate 2.0 μM, 15 min preincubation, mean ± SD, n ≥ 2, read-out: IC50
[2] = read-out: IC50 [μM] using SPE-MS (37mer peptide)
[3] = Table S2, M^pro 0.15 μM, 37mer substrate peptide 2.0 μM, mean ± SD, n ≥ 2, read-out: IC50 [μM] using SPE-MS (37mer peptide)
[4] = Table 2, M^pro […], 37mer substrate 2.0 μM, mean ± SD, n ≥ 2, read-out: IC50
[5] = Table 3, M^pro […], 37mer substrate 2.0 μM, mean ± SD, n ≥ 2, read-out: IC50

Compound	IC50 [4] [µM]	M^pro inhibition, result in words	also measured
CC1(C)S[C@@H]2[C@H](NC(=O)COc3ccccc3)C(=O)N2[C@H]1C(=O)O [Compound 12, penicillin V, reference compound]			IC50 [1]: > 50 µM
CC1(C)S[C@@H]2[C@H](NC(=O)COc3ccccc3)C(=O)N2[C@H]1C(=O)OCc1ccccc1 [Compound 13]			IC50 [1]: > 50 µM
CC1(C)S[C@@H]2[C@H](NC(=O)COc3ccccc3)C(=O)N2[C@H]1C(=O)OCc1ccccc1F [Compound 19a]			IC50 [2]: 47.7 ± 6.8 µM
CC1(C)S[C@@H]2[C@H](NC(=O)COc3ccccc3)C(=O)N2[C@H]1C(=O)OCc1ccc(F)cc1 [Compound 19c]			IC50 [2]: > 50 µM
CC1(C)S[C@@H]2[C@H](NC(=O)COc3ccccc3)C(=O)N2[C@H]1C(=O)OCc1cc(F)cc(F)c1 [Compound 19d]			IC50 [3]: > 50 µM
CC1(C)S[C@@H]2[C@H](NC(=O)COc3ccccc3)C(=O)N2[C@H]1C(=O)OCc1ccc(F)cc1F [Compound 19e]			IC50 [3]: > 50 µM
CC1(C)S[C@@H]2[C@H](NC(=O)COc3ccccc3)C(=O)N2[C@H]1C(=O)OCc1c(F)cc(F)cc1F [Compound 19g]			IC50 [3]: > 50 µM
COc1ccc(COC(=O)[C@@H]2N3C(=O)[C@@H](NC(=O)COc4ccccc4)[C@H]3SC2(C)C)cc1 [Compound 19k]			IC50 [3]: 45.8 ± 11 µM
CC1(C)[C@H](C(=O)OCc2cccc(F)c2)N2C(=O)[C@@H](NC(=O)COc3ccccc3)[C@H]2S1(=O)=O [Compound 20b]	9.2 ± 3.7		
CC1(C)[C@H](C(=O)OCc2cc(F)c(F)c(F)c2)N2C(=O)[C@@H](NC(=O)COc3ccccc3)[C@H]2S1(=O)=O [Compound 20f]	> 50		
CC1(C)[C@H](C(=O)OCc2cc(C(F)(F)F)cc(C(F)(F)F)c2)N2C(=O)[C@@H](NC(=O)COc3ccccc3)[C@H]2S1(=O)=O [Compound 20h]	35.3 ± 2.2	inhibited M^pro	
CC1(C)[C@H](C(=O)OCc2cccc([N+](=O)[O-])c2)N2C(=O)[C@@H](NC(=O)COc3ccccc3)[C@H]2S1(=O)=O [Compound 20i]	13.3 ± 5.3	inhibited M^pro	
CC1(C)[C@H](C(=O)OCc2ccc([N+](=O)[O-])cc2)N2C(=O)[C@@H](NC(=O)COc3ccccc3)[C@H]2S1(=O)=O [Compound 20j, penicillin V sulfone para-nitrobenzyl ester]	> 50	do not, at least efficiently, inhibit M^pro	
COc1ccc(COC(=O)[C@@H]2N3C(=O)[C@@H](NC(=O)COc4ccccc4)[C@H]3S(=O)(=O)C2(C)C)cc1 [Compound 20k]	31.1 ± 13.9	do not, at least efficiently, inhibit M^pro	
CC1(C)[C@H](C(=O)OCc2ccc3ccccc3c2)N2C(=O)[C@@H](NC(=O)COc3ccccc3)[C@H]2S1(=O)=O [Compound 20l]	> 50	do not, at least efficiently, inhibit M^pro	
CC1(C)[C@H](C(=O)OCc2ccc(C(F)(F)F)o2)N2C(=O)[C@@H](NC(=O)COc3ccccc3)[C@H]2S1(=O)=O [Compound 20m]	10.2 ± 2.2	inhibit M^pro, albeit with slightly reduced potency compared to 10	
Cc1cc(COC(=O)[C@@H]2N3C(=O)[C@@H](NC(=O)COc4ccccc4)[C@H]3S(=O)(=O)C2(C)C)no1 [Compound 20n]		inhibit M^pro, albeit with slightly reduced potency compared to 10	IC50 (Table 2, M^pro 0.15 μM, 37mer substrate 2.0 μM, mean ± SD, n ≥ 2, read-out: IC50): 9 ± 1.3 µM
COC(=O)[C@@H]1N2C(=O)[C@@H](NC(=O)COc3ccccc3)[C@H]2S(=O)(=O)C1(C)C [Compound 20o]	7.9 ± 1.4		
CC1(C)[C@H](C(=O)OCC#N)N2C(=O)[C@@H](NC(=O)COc3ccccc3)[C@H]2S1(=O)=O [Compound 20r]	9.7 ± 3.3		
CC1(C)[C@H](C(=O)OCc2ccccc2)N2C(=O)[C@@H](NC(=O)CNC(=O)c3ccccc3)[C@H]2S1(=O)=O [Compound 25d]			IC50 [5]: > 50 µM
CC1(C)[C@H](C(=O)OCc2ccccc2)N2C(=O)[C@@H](NC(=O)CNC(=O)OCc3ccccc3)[C@H]2S1(=O)=O [Compound 25e]			IC50 [5]: > 50 µM
